How the values were obtained:
[1] = target: T1, Human Phosphorylase Uridine 1 (hUP1) (Homo sapiens, UniProt Q16831); test: Ki and inhibition type from substrate saturation curves, double-reciprocal analysis; type: biochemical; details: for Inhibiting type for phosphate: substrate Pi; for Inhibition type for uridine: substrate uridine
Description: (§1) The enzymatic activity of the hUP1 is performed through the enzymatic essay using one spectrophotometer UV/visible where the absorbance reduction of uridine in 280 nm, for 1 min and at 37° C. was monitored.
For determining Ki for the selected inhibitors, we performed saturation curves where the concentration of one of the substrates is fixed next to the Km and the concentration of another, varied until the saturation in fixed-varying concentrations of each one of the inhibitors.
(I) v=VA/[Ka(1+I/Kii)+A(1+Kis)] (II) v=VA/[A(1+I/Kis)+Ka] (III)

hUP1-R1P = hUP1-R1P (Homo sapiens, UniProt Q16831); test: isothermal titration microcalorimetry (ITC), enzyme complexed with product ribose-1-phosphate; type: binding
Description: (§2) For determining the thermodynamic parameters (enthalpy variation—ΔH, entropy variation—ΔS, and free energy variation of Gibbs—ΔG) were performed compounds binding essays to the enzyme in different conditions: free enzyme, complexed enzyme with the substrate Pi, and the complexed enzyme with the product ribose-1-phosphate (R1P). For such analyses, it was used isothermal titration microcalorimetry (ITC) where the equipment monitors the difference of transferred heat, between the reference cell and the sample cell, when bindings are formed or broken during the binding process. The data analysis achieved was performed through the model One Set of Sites and the determination of ΔG and the dissociation constant (KD) were through the equations (IV) and (V) below, respectively: ΔG=ΔH−TΔS (IV) KD=1/Ka (V)

hUP1 = hUP1 (Homo sapiens, UniProt Q16831); test: isothermal titration microcalorimetry (ITC), free enzyme; type: binding
Description: as §2

[2] = target: T1, Human Phosphorylase Uridine 1 (hUP1); details: literature value, said to be confirmed by own experiments; read-out: constant inhibition for uridine described on the literature; cited from earlier work
hUP1-Pi = hUP1-Pi (Homo sapiens, UniProt Q16831); test: isothermal titration microcalorimetry (ITC), enzyme complexed with substrate Pi; type: binding
Description: as §2

plasma uridine = test: uridine concentration in animals' plasma by HPLC (mucositis model); type: in vivo, female Wistar mouse; details: compound orally, either 50 mg/kg or 150 mg/kg
Description: (§3) The test compound was administrated via oral, 30 minutes before administrating the chemotherapeutic 5-FU that was administrated via intraperitoneal. This treatment was followed for 5 days with once a day administrations. In the 5th treatment day, the animals were euthanized using one inhalational anesthetic (isoflurane) and the initial portion of the intestine (corresponding to jejunum and ileus) was collected for myeloperoxidase analysis (MPO) and histological analysis of the tissue, as well blood collect for quantification analysis of the uridine in the plasma. The animals were also followed-up regarding weight loss and diarrhea.
The determination of the uridine concentration in the animals' plasma as performed by HPLC, using as mobile phase acetic acid 0.1%. First, it was made a calibration curve using commercial uridine as standard (Sigma) in the concentrations of 0.625-1.25-2.5-5.0-10.0-20.0 μM in mice plasma to keep the same matrix where the samples ones are. After the calibration curve, the plasma samples were analyzed of each group and was one positive result was achieved. As was expected, there was an increase of 4.4 times in the uridine concentration in the animals' plasma that received the compound orally, either in the dose of 50 mg/kg or in the dose of 150 mg/kg (FIGS. 5A and 5B). […]

[3] = system: myeloperoxidase (MPO) in initial portion of the intestine; test: MPO analysis in repeated mucositis model; type: in vivo; details: 50 mg/kg orally of 8-8 h, starting 2 days before 5-FU and 2 further days with 5-FU
Description: The last in vivo analysis was regarding the MPO. The MPO is a primary answer of inflammation, present in neutrophils, and for that it was analyzed which is the best day of euthanasia to check this primary answer. The treatment schema lasted 5 days, where the animals were divided into 2 groups with 10 animals in each (Group Saline and Group 5-FU). The 5-FU (50 mg/kg) was administrated using the intraperitoneal via, as well the Saline. The animals were put into euthanasia in 24 h, 48 h, 72 h, 96 h and 120 h after the administration (days 1-5) and the initial portion of the intestine was collected. It was verified that the best day for MPO quantification would be day 2 (48 h after 5-FU administration), such as represented in the FIG. 6, in which the statistical analysis was performed though one-way ANOVA followed by Bonferroni test. The lines represent the standard error while each column represents the mean of two animals of each group. *Significant difference regarding group Saline (*p<0.05).
The first experiment of mucositis was repeated, with 3 groups having 5 animals in each (Group Saline+Saline, Group Saline+5-FU and Group Compound c3+5-FU). […] The animals were euthanized with isoflurane and the initial portion of the intestine was analyzed. […]

[4] = target: T1, Human Phosphorylase Uridine 1 (hUP1); test: hUP1 enzymatic assay, inhibition at 1 μM (UV absorbance of uridine at 280 nm); type: biochemical; details: 1 μM compound, 37° C.
Description: as §1
For determining which inhibitors would be selected for determining the inhibition constant (Ki), one cut point of 1 μM was stipulated, where only those compounds that would inhibit more than 60% of the initial activity of the enzyme would be selected for this type of analysis (Table 1). From all compounds tested, 7 molecules had its inhibition above 60% with the concentration of 1 μM (Compounds c1, c2, c3, c4, c6, c12, and c13). All essays described on this patent application were performed for these compounds and for benzil acyclo uridine (BAU), in order to perform a direct comparison of the results achieved with the better in vitro inhibitor of the hUP1 described (standard).

[5] = system: intestinal mucositis caused by 5-FU; test: intestinal mucositis model caused by 5-FU (weight, diarrhea, villus histology); type: in vivo, female Wistar mouse; details: 5 days
Description: as §3, with “The compound c3 was tested in in vivo for evaluating its protection regarding intestinal mucositis caused by 5-FU. The mucositis model was developed in female Wistar mouse (180-200 g) and the animals were divided into 5 groups with 4 animals in each group: Group 1: Saline+Saline Group 2: Compound c3 (150 mg/kg)+saline Group 3: Saline+5-FU (50 mg/kg) Group 4: Compound c3 (50 mg/kg)+5-FU (50 mg/kg) Group 5: Compound c3 (150 mg/kg)+5-FU (50 mg/kg) The test” for “The test”

[6] = c3 50 or 150 mg/kg oral 30 min before 5-FU 50 mg/kg intraperitoneal, once a day

hUP1, sequence (Q16831 whole entry): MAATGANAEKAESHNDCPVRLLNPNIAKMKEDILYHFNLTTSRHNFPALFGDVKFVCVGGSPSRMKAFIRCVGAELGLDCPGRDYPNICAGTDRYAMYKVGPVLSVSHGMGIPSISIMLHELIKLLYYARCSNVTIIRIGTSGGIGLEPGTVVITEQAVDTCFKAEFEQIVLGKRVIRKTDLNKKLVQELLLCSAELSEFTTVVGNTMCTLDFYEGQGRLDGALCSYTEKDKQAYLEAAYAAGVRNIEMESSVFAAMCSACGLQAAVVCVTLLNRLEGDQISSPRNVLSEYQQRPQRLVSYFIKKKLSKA
T1 sequence (Q16831 whole entry): as above
hUP1-R1P, sequence (Q16831 whole entry): as above
hUP1-Pi, sequence (Q16831 whole entry): as above

SMILES	Inhibiting type for phosphate [1]	Inhibition type for uridine [1]	Kd (hUP1-R1P; hUP1-R1P 50 μM) [nM]	ΔG° (hUP1-R1P; hUP1-R1P 50 μM) [kcal/mol]	ΔH° (hUP1-R1P; hUP1-R1P 50 μM) [kcal/mol]	Kd (hUP1-R1P; hUP1-R1P 150 μM) [nM]	ΔG° (hUP1-R1P; hUP1-R1P 150 μM) [kcal/mol]	ΔH° (hUP1-R1P; hUP1-R1P 150 μM) [kcal/mol]	Kd (hUP1-Pi) [nM]	ΔG° (hUP1-Pi) [kcal/mol]	ΔH° (hUP1-Pi) [kcal/mol]	−TΔS (kcal/mol/deg) (hUP1-Pi)	further results
O=c1[nH]c(=O)n(COCCO)cc1Cc1ccccc1 [BAU, benzil acyclo uridine, reference compound]	Not competitive	Competitive	1200 ± 244	-8.2 ± 1.7	-12 ± 0.3	6600 ± 898	-7.3 ± 1.0	-20 ± 0.7	1400 ± 239	-8.2 ± 1.4	-13 ± 0.3	4.6 ± 0.8	Kd (hUP1): 1200 ± 150 nM; ΔG° (hUP1): -8.4 ± 1.0 kcal/mol; ΔH° (hUP1): -10 ± 0.1 kcal/mol; −TΔS (kcal/mol/deg) (hUP1): 1.5 ± 0.2 kcal/mol/deg; Ki [2]: 100 nM
Cc1cc(O)[nH]c(=O)c1C#N [Compound c3]	Uncompetitive	Not competitive	1400 ± 341	-8.3 ± 2.0	-31 ± 1.2	40	-9.8 ± 1.4	-21 ± 0.1	12000 ± 1400	-6.9 ± 0.8	-19 ± 1.3	12 ± 1.4	−TΔS (kcal/mol/deg) (hUP1-R1P; hUP1-R1P 50 μM): 22 ± 5.4 kcal/mol; −TΔS (kcal/mol/deg) (hUP1-R1P; hUP1-R1P 150 μM): 11 ± 1.5 kcal/mol; Kd (hUP1-R1P; hUP1-R1P 200 μM): 20 nM; ΔG° (hUP1-R1P; hUP1-R1P 200 μM): -11 ± 1.3 kcal/mol; ΔH° (hUP1-R1P; hUP1-R1P 200 μM): -22 ± 0.1 kcal/mol; −TΔS (kcal/mol/deg) (hUP1-R1P; hUP1-R1P 200 μM): 11 ± 1.3 kcal/mol; increase in the uridine concentration in the animals' plasma (plasma uridine): 4.4 times; MPO, primary inflammation process [3]: not able to revert the primary inflammation process; Inhibition with 1 μM (%) [4]: 70%; inhibition at 1 µM [4]: > 60%; intestinal villus size (histological analysis) ([5]; both tested doses (50 and 150 mg/kg oral) + 5-FU 50 mg/kg intraperitoneal): statistically equal to the group Saline and different from the group 5-FU; protection from diarrhea caused by 5-FU [5, 6]: not able to avoid these side effects; protection from weight loss caused by 5-FU [5, 6]: not able to avoid these side effects

Reference: patent US9700547B2, “Use of 6-hydroxy-2-pyridones and derivatives thereof for preparing a pharmaceutical composition that acts by inhibiting the human uridine phosphorylase enzyme” (UNIÃO BRASILEIRA DE EDUCAÇÃO E ASSISTÊNCIA, MANTENEDORA DA …, priority 2013, dated 2017)
